Assays:
[1] = tested on: MB mouse model of glaucoma; experiment: IOP in microbead (MB) mouse model of glaucoma, intraperitoneal dosing; assay type: in vivo
Protocol: FIG. 2 confirms that the mouse model for glaucoma causes RGC degeneration. Specifically, microbeads (MBs) were injected into the anterior chamber of a mouse eye. The MBs increase intraocular IOP above 15 mm Hg by blocking outflow of the aqueous humor within the anterior chamber of the eye. MBs were reinjected as needed to maintain a high IOP, typically one injection every two weeks. Contralateral eyes were injected intraocularly with the vehicle PBS (phosphate buffered saline) as controls. […] IOP levels were measured at least twice weekly before and after intraocular injections. After injections, mice recovered for 48 hours before IOP measurements resumed. […] Retinas were then removed and processed for immunohistochemistry (IHC). […] After rinsing with PBS, PBS containing the secondary antibody conjugated to fluorophores (Alexa 488 or Alexa 594; […] Retinas were rinsed and flat-mounted on microscope slides. Mounting medium was added and retinal wholemounts were coverslipped. The density of RGCs was imaged with a confocal microscope (Zeiss LSM 510) and quantified by counting NeuN-, CFP- and/or Tuj-1—labeled somata in the RGC layer of the retinal wholemount preparation. Injection of microbeads induces RGC degeneration after 8 weeks but not after 4 weeks. […] Mice were sedated with IP injection of Avertin with final amount calculated by weight (e.g., 0.5 ml for 21-24 g animals). […]

retinal ganglion cells [2] = experiment: Hypotonic swelling-induced calcium influx in retinal ganglion cells (Fura-2); assay type: cell-based
Excerpt: Cells were labeled with fluorescent calcium indicator dye Fura-2 and exposed to hypotonic solutions in which extracellular sodium was replaced by the osmotically inert substance mannitol, as described in […] et al. (J. Neurosci. 2011 May 11; 31(19):7089-101; PMID 21562271).

[3] = tested on: retinal neurons (RGCs) and glia (Müller cells); experiment: Hypotonic stimuli: cell swelling (change in cell area) and [Ca++]i; assay type: cell-based
Excerpt: FIG. 18A illustrates the effect of hypotonic stimuli on cell swelling as measured by change in cell area. Hypotonic stimuli were generated by replacing extracellular sodium levels to lower osmolarity from 300 mOsm to 190 mOsm.

Müller cells = experiment: Arachidonic acid-induced [Ca2+]i in Müller cells; assay type: cell-based; conditions: 1 μM, against 10 μM arachidonic acid
Protocol: This response is blocked by Compound 1 (1 μM).

retinal ganglion cells [4] = experiment: In vivo intraocular injection of TRPV4 agonist GSK, NeuN+ RGC count; conditions: intraocular GSK, 48 hours
Protocol: In this experiment, GSK (100-300 nM) was injected intraocularly with a Hamilton syringe. Retinas were isolated after 48 hours, fixed and labeled with the RGC marker antibody NeuN. NeuN-immunopositive somata in the ganglion cell layer, shown in the panel on the right, were counted. The bar graph represents quantification of NeuN^+ cells in the indicated experimental groups.

retinal ganglion cells [5] = experiment: TUNEL assay of apoptotic cell death in retina; assay type: cell-based; conditions: Compound 1 1 uM, RuR 10 μM
Protocol: Terminal deoxynucleotidyl transferase-mediated dUTP-biotin nick end labeling (TUNEL) is a common method for detecting fragmentation that results from apoptotic signaling cascades. Retinas were embedded, cryosectioned, and processed for the TUNEL assay following the protocol by Gavrieli et al. (1992). After 30 min. rehydration in 70% ethanol, 2×5 min. rinses in PBS and 1% Triton-X in 1% citrate buffer (pH 7.3), the slides were subjected to a final rinse in PBS. Slides were then incubated for 30 min. in the reaction buffer (30 mM Trizma-HCl, 140 mM Na^+ cacodylate, 1.0 mM CaCl2, 0.2% Triton X-100, pH 7.2). Positive controls were treated with DNAse I (Roche Diagnostics; Branford, Conn.; 10 U/ml) in the reaction buffer. Next, slides were treated for 1 hour with 0.03 units/pi terminal transferase and 4 μM biotin-16-dUTP (Roche Diagnostics). The reaction was terminated in 30 mM Na+ citrate, 300 mM NaCl and 0.2% Triton X-100 in PBS (5 min.) and rinsed in PBS (2×5 min), exposed to 1% bovine serum albumin in PBS for 20 min and rinsed. Apoptotic cells were visualized with a confocal microscope (Zeiss LSM510) and categorized by size. […] This was blocked by RuR and by the TRPV4 antagonist Compound 1.

TRPV4 [6] = target: T1, TRPV4 (Mus musculus, UniProt Q9EPK8); experiment: TRPV4 agonist GSK-evoked [Ca++]i in retinal Müller glial cells; assay type: cell-based; design: endogenous in cells; host or cells: retinal Müller glial cells
T1 sequence (Q9EPK8 whole entry): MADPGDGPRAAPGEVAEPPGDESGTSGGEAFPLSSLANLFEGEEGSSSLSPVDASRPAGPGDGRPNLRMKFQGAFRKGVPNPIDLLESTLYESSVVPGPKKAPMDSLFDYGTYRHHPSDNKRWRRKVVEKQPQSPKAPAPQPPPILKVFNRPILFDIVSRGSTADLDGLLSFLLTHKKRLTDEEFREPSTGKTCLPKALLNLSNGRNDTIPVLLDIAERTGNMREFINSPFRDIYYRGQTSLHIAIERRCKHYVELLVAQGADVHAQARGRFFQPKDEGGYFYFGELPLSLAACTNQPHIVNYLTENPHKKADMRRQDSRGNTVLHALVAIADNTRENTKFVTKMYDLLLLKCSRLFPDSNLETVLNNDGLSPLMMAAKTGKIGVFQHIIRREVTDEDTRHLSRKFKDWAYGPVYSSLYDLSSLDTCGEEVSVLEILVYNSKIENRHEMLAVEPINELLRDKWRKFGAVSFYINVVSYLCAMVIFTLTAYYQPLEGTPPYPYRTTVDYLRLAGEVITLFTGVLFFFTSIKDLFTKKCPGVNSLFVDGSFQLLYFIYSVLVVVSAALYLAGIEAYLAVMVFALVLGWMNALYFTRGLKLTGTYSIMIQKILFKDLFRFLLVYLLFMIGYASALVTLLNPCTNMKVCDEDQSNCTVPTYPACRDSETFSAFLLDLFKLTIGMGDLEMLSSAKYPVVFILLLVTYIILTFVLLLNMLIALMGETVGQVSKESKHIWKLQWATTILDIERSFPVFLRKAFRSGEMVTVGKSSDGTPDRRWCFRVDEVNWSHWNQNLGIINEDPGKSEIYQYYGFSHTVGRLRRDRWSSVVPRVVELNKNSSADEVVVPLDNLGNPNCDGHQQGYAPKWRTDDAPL

TRPV4 [7] = target: T1, TRPV4; experiment: Block of TRPV4 agonist-induced calcium responses in retinal ganglion cells; assay type: cell-based; design: endogenous in cells; host or cells: retinal Müller glial cells
Protocol: Calcium responses in retinal ganglion cells were elicited by 25 nM agonist GSK in the presence of varying concentrations of Compound 1. The half-maximal dose of inhibition was ˜300 nM.

TRPV4 [8] = target: T1, TRPV4; experiment: AGB cation influx into retinal cells (anti-AGB antibody); assay type: cell-based; design: these two cell types express TRPV4 channels in the mouse retina; from tissue; host or cells: mouse retina; conditions: mouse retina
Protocol: FIG. 16 illustrates the effect of the TRPV4 agonist GSK on cation influx into mouse retinal cells of the mouse retina. The influx was determined using the anti-AGB antibody, as described by Marc RE (J Comp Neurol 407(1): 47-64, 1999). AGB is a membrane permeant cation that can flow through most known cation channels. Using an anti-AGB antibody, it can be determined where the cation flux occurs and, therefore, which cells are activated.

Question: How did the IOP ([1]; 10 mg/kg body weight intraperitoneally, MB-injected eyes vs PBS-injected eyes) turn out when `Cc1c(C(=O)Nc2cccc(C(F)(F)F)c2)cc(-c2ccccc2)n1CCCN1CCOCC1` [Compound 1, N-(3-(trifluoromethyl)phenyl)-2-methyl-1-(3-morpholinopropyl)-5-phenyl-1H-pyrrole-3-carboxamide] was run?
Answer: blocked the increase in IOP to the level observed in control mice

Question: What about the “average IOP, cumulative effectiveness” value ([1]; daily IP injections, cumulative data from 3 independent experiments) of the same molecule?
Answer: blocks MB-induced increases in IOP

Question: What about the “effect of cell swelling on intracellular calcium levels in ganglion cells” value (retinal ganglion cells [2]; 140 mOsm saline) of the same molecule?
Answer: blocked

Question: And the “pressure-dependent influx of calcium in RGCs (FIG. 17C)” value (retinal ganglion cells [2]; hypotonic solutions)?
Answer: prevents the pressure-dependent influx of calcium in RGCs

Question: What about the “hypotonic stimuli-induced increase in [Ca++]i (FIG. 18B)” value ([3]; hypotonic stimuli) of the same molecule?
Answer: inhibited

Question: And the “cell swelling (change in cell area)” value ([3]; osmolarity lowered from 300 mOsm to 190 mOsm)?
Answer: prevented hypotonic stimuli-mediated cell swelling to the same extent as BAPTA-AM

Question: What about the “block of arachidonic acid-induced [Ca2+]i increase” value (Müller cells) of the same molecule?
Answer: blocked

Question: And the “block of GSK-induced RGC degeneration” value (retinal ganglion cells [4])?
Answer: blocked

Question: What about the “apoptotic cell death (TUNEL) induced by hypotonic swelling” value (retinal ganglion cells [5]; 190 mOsm saline) of the same molecule?
Answer: block apoptotic cell death

Question: What about the “apoptotic cell death (TUNEL) induced by the TRPV4 agonist GSK” value (retinal ganglion cells [5]; GSK 100 nM) of the same molecule?
Answer: block apoptotic cell death

Question: What about the “block of GSK-evoked [Ca++]i increase” value (TRPV4 [6]) of the same molecule?
Answer: this effect is blocked

Question: And the “reversibility of the effect on glial calcium levels” value (TRPV4 [6])?
Answer: reversible

Question: What about the “washout by superfusion with control saline” value (TRPV4 [6]) of the same molecule?
Answer: 10 min

Question: And the IC50 (TRPV4 [7])?
Answer: ~300 nM

Question: What about the “antagonism of the effect of GSK on AGB cation influx” value (TRPV4 [8]) of the same molecule?
Answer: strongly antagonized
